Read-outs that look alike come from different tables or passages of the source.
What was measured:
DNA-PK = target: T1, DNA-PK (Homo sapiens, UniProt P78527); test: DNA-PK Assay for Biochemical Enzymatic Inhibition (ADP Glo Kinase assay); conditions: Table 1
T1 construct: purchased Invitrogen PR9107A
Summary of the method: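 Human DNA-PK (25 ng) preincubated 15 min with compounds (ten three-fold dilutions) in HEPES pH 7.5, MgCl2, KCl, calf thymus DNA buffer, then substrate 434.4 μM and ATP 64.4 μM (final) for 60 min at room temperature. ADP-Glo luminescence; percent inhibition fitted by four-parameter regression for IC50.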

[1] = Microsomal stability assay, mouse liver microsomes; conditions: for microsomal CLint at 0.1 uM: male, CD-1, mouse, liver microsomes, pH 7.4, Microsomal Stability Mouse Clint, 0.1 mg/mL microsomes, 0.1 uM compound
[2] = target: T2, DNA-PK phosphorylation at Serine 2056 (Homo sapiens, UniProt P78527); test: Cellular Assay for Inhibition of DNA-PK Phosphorylation at Serine 2056 (FaDu cells, neocarzinostatin, sandwich ELISA); format: cell-based; conditions: Table 1
T2 construct: host or cells: FaDu
Summary of the method: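 Readout was pSer2056 and total DNA-PK, measured by sandwich ELISA on protein-normalized lysates. Prior to lysis, compound was applied to FaDu cells for 1 h (0.3% DMSO), followed by 2 h of 1 μg/mL neocarzinostatin. IC50 values were fitted from log concentration versus % inhibition normalized to DMSO and NCS controls.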

[3] = target: T3, pDNA-PK ser2056 induction in HCT116 spheroids (Homo sapiens, UniProt P78527); test: Multicellular tumour spheroid + radiation, pDNA-PK inhibition, HCT116; format: cell-based; conditions: 20 Gy
T3 construct: endogenous in cells; host or cells: HCT116 multicellular tumour spheroids
Procedure: Multicellular tumour spheroids determination of compound inhibition of pDNA-PK induction following radiation. Tumour spheroids were grown to approximately 0.5 mm in diameter and irradiated with 20 Gy in combination with inhibitor test compounds to determine their potency. Inhibitor concentration for 50% reduction in pDNA-PK induction (IC50) was determined via immunohistochemical staining in spheroid cryosections taken 2 hours following radiation.
Spheroid, Cell Line: […], Immunohistochemical endpoint, pDNA-PK inhibition, EC50 in μm.
(§1) Spheroid+radiation pDNA-PK. Radiation: 20 Gy. Drug: serial dilution 5 or 10 μM down to 3.5 nM (11 wells). Spheroids: 3-6 spheroids per well (300-500 μm diameter). 20% O2 and 5% CO2. 96 well plate format.
Protocol: pre-incubate 1 hours with drug, irradiate with 20 Gy, post-incubate 2 hours with drug, freeze and cryosection ×3 replicates.
Endpoint: fluorescent immunostin pDNA-PK ser2056 and image on microscope.
Analysis: determine EC50 concentration that decreases pDNA-PK induction by 50% after radiation.
Multicellular tumour spheroids determination of compound inhibition of pDNA-PK induction following radiation. Tumour spheroids were grown to approximately 0.5 mm in diameter and irradiated with 20 Gy in combination with inhibitor test compounds to determine their potency. Inhibitor concentration for 50% reduction in pDNA-PK induction (IC50) was determined via immunohistochemical staining in spheroid cryosections taken 2 hours following radiation. For cell survival endpoint 8 Gy radiation was used and 3 hours following radiation spheroids were dissociated, counted and plated for colony forming endpoint.
as §1, with “format. Endpoint: fluorescent immunostain pDNA-PK ser2056 and image on microscope. Analysis: determine EC50 concentrations that decreases pDNA-PK induction […] after irradiation.” for “format.”
Multicellular tumour spheroids were used to determine potency of test compounds in a 3D tissue environment using inhibition of pDNA-PK induction following radiation or cell survival as the endpoint. For the pDNA-PK endpoint HCT116 or FaDU tumour spheroids were grown to approximately 0.5 mm in diameter and irradiated with 20 Gy in combination with inhibitor test compounds to determine their potency. Experiments were carried out in 96 well plates containing 0.7 mls of MEM media containing 10% FBS and 10 mM glucose under 20% O2 & 5% CO2 at 37° C. Following dilution of compounds 1:1000 from DMSO stocks, compounds were serially diluted from 10 μM down to 3.5 nM and 5-10 spheroids added. 96 well plates were constantly stirred to avoid spheroids settling during the course of the experiment. The inhibitor concentration for 50% reduction in pDNA-PK induction (EC50) was determined via immunohistochemical staining in spheroid cryosections taken 2 hours following radiation using anti-pDNA-PK (ser 2056) and fixed immediately in formalin following sectioning. For cell survival endpoint 8 Gy radiation was used and, 3 hours following radiation, spheroids were dissociated, counted and plated for colony forming endpoint. Data presented in the table compound potency as EC50 [μM].

[4] = Example 7, spheroid, cell line HCT115 [sic], 20% O2, read-out: EC50 (pDNA-PK inhibition, immunohistochemical endpoint)
[5] = Example 8, spheroid, read-out: Cell line: HCT116 Immunohistochemical endpoint pDNA-PK inhibition EC50
[6] = Example 9 Study 2, 20% O2, read-out: Spheroid Cell line: HCT116 Immunohistochemical endpoint pDNA-PK inhibition EC50

Row | IC50 (DNA-PK) [µM] | Microsomal Stability (mouse) % rem. 60 min [1] | microsomal CLint at 0.1 uM [1] [µL/min/mg] | IC50 [2] [µM] | EC50 [3, 4] [µM] | EC50 [3, 5] [µM] | EC50 [3, 6] [µM] | SMILES
1 | 0.01 to 0.15 | E (% remaining = 0-25%) | > 116 | – | – | – | – | C[C@]1(n2ccnc2)CC[C@@H](Oc2nc(N3CCOCC3)cc3ncccc23)CC1 [Compound 11, 4-(5-(((1s,4s)-4-(1H-imidazol-1-yl)-4-methylcyclohexyl)oxy)-1,6-naphthyridin-7-yl)morpholine]
2 | 0.001 to 0.01 | G (% remaining = 50-75%) | < 116 | 0.1 to 1 | 1 to 10 | 1 to 10 | 1 to 10 | O=C(N[C@H]1CC[C@@H](Oc2nc(N3CCOCC3)cc3ncccc23)CC1)N1CCOCC1 [Compound 14, N-((1s,4s)-4-((7-morpholino-1,6-naphthyridin-5-yl)oxy)cyclohexyl)morpholine-4-carboxamide]
3 | 0.01 to 0.15 | E (% remaining = 0-25%) | > 116 | – | – | – | – | FC(F)(F)c1cnn([C@H]2CC[C@@H](Oc3nc(N4CCOCC4)cc4ncccc34)CC2)c1 [Compound 17b, 4-(5-(((1s,4s)-4-(4-(trifluoromethyl)-1H-pyrazol-1-yl)cyclohexyl)oxy)-1,6-naphthyridin-7-yl)morpholine]
4 | 0.001 to 0.01 | E (% remaining = 0-25%) | > 116 | 1 to 10 | – | – | – | Cc1nn([C@H]2CC[C@@H](Oc3nc(N4CCOCC4)cc4ncccc34)CC2)cc1C(F)(F)F [Compound 17g, 4-(5-(((1s,4s)-4-(3-methyl-4-(trifluoromethyl)-1H-pyrazol-1-yl)cyclohexyl)oxy)-1,6-naphthyridin-7-yl)morpholine]
5 | – | E (% remaining = 0-25%) | > 116 | – | – | – | – | c1cnc2cc(N3CCOCC3)nc(O[C@H]3CC[C@@H](n4cnnn4)CC3)c2c1 [Compound 17l, 4-(5-(((1s,4s)-4-(1H-tetrazol-1-yl)cyclohexyl)oxy)-1,6-naphthyridin-7-yl)morpholine]
6 | 0.001 to 0.01 | E (% remaining = 0-25%) | > 116 | 0.1 to 1 | 1 to 10 | 1 to 10 | 1 to 10 | c1cnc2cc(N3CCOCC3)nc(O[C@H]3CC[C@@H](n4ncnn4)CC3)c2c1 [Compound 17m, 4-(5-(((1s,4s)-4-(2H-tetrazol-2-yl)cyclohexyl)oxy)-1,6-naphthyridin-7-yl)morpholine]
7 | 0.001 to 0.01 | E (% remaining = 0-25%) | > 116 | 0.1 to 1 | 1 to 10 | 1 to 10 | 1 to 10 | Brc1cnc2cc(N3CCOCC3)nc(O[C@H]3CC[C@@H](Nc4ncccn4)CC3)c2c1 [Compound 18a, N-((1s,4s)-4-((3-Bromo-7-morpholino-1,6-naphthyridin-5-yl)oxy)cyclohexyl)pyrimidin-2-amine]
8 | 0.001 to 0.01 | E (% remaining = 0-25%) | > 116 | < 0.1 | 0.5 to 1 | 0.5 to 1 | 0.5 to 1 | COc1cnc(N[C@H]2CC[C@@H](Oc3nc(N4CCOCC4)cc4ncccc34)CC2)nc1 [Compound 20c, 5-Methoxy-N-((1s,4s)-4-((7-morpholino-1,6-naphthyridin-5-yl)oxy)cyclohexyl)pyrimidin-2-amine]
9 | 0.01 to 0.15 | F (% remaining = 25-50%) | > 116 | – | – | – | – | c1cnc(N[C@H]2CC[C@H](Oc3nc(N4CCOCC4)cc4ncccc34)CC2)nc1 [Compound 24, N-((1r,4r)-4-((7-morpholino-1,6-naphthyridin-5-yl)oxy)cyclohexyl)pyrimidin-2-amine]
10 | 0.0005 to 0.001 | E (% remaining = 0-25%) | > 116 | 0.1 to 1 | 1 to 10 | 1 to 10 | 1 to 10 | c1cncc(N[C@H]2CC[C@@H](Oc3nc(N4CCOCC4)cc4ncccc34)CC2)c1 [Compound 26, N-((1s,4s)-4-((7-morpholino-1,6-naphthyridin-5-yl)oxy)cyclohexyl)pyridin-3-amine]
11 | < 0.0005 | E (% remaining = 0-25%) | > 116 | < 0.1 | 0.5 to 1 | – | 0.5 to 1 | c1cnnc(N[C@H]2CC[C@@H](Oc3nc(N4CCOCC4)cc4ncccc34)CC2)c1 [Compound 29, N-((1s,4s)-4-((7-morpholino-1,6-naphthyridin-5-yl)oxy)cyclohexyl)pyridazin-3-amine]
12 | 0.001 to 0.01 | E (% remaining = 0-25%) | > 116 | 0.1 to 1 | 1 to 10 | 1 to 10 | 1 to 10 | O=C(N[C@H]1CC[C@@H](Oc2nc(N3CCOCC3)cc3ncccc23)CC1)C1CC1 [Compound 108, N-((1s,4s)-4-((7-Morpholino-1,6-naphthyridin-5-yl)oxy)cyclohexyl)cyclopropanecarboxamide]
13 | 0.001 to 0.01 | E (% remaining = 0-25%) | > 116 | 0.1 to 1 | 10 to 100 | 10 to 100 | 10 to 100 | O=C(N[C@H]1CC[C@@H](Oc2nc(N3CCOCC3)cc3ncccc23)CC1)C1(O)CC1 [Compound 109, 1-Hydroxy-N-((1s,4s)-4-((7-morpholino-1,6-naphthyridin-5-yl)oxy)cyclohexyl)cyclopropane-1-carboxamide]
14 | 0.0005 to 0.001 | E (% remaining = 0-25%) | > 116 | 0.1 to 1 | 1 to 10 | – | 1 to 10 | O=C(N[C@H]1CC[C@@H](Oc2nc(N3CCOCC3)cc3ncccc23)CC1)c1ccccn1 [Compound 114, N-((1s,4s)-4-((7-morpholino-1,6-naphthyridin-5-yl)oxy)cyclohexyl)picolinamide]
15 | 0.0005 to 0.001 | F (% remaining = 25-50%) | > 116 | 0.1 to 1 | 1 to 10 | – | 1 to 10 | O=C(N[C@H]1CC[C@@H](Oc2nc(N3CCOCC3)cc3ncccc23)CC1)c1ccc(Cl)nc1 [Compound 116, 6-chloro-N-((1s,4s)-4-((7-morpholino-1,6-naphthyridin-5-yl)oxy)cyclohexyl)nicotinamide]
16 | 0.0005 to 0.001 | E (% remaining = 0-25%) | > 116 | 0.1 to 1 | 1 to 10 | – | 1 to 10 | O=C(N[C@H]1CC[C@@H](Oc2nc(N3CCOCC3)cc3ncccc23)CC1)c1cnccn1 [Compound 119, N-((1s,4s)-4-((7-morpholino-1,6-naphthyridin-5-yl)oxy)cyclohexyl)pyrazine-2-carboxamide]

From patent US20240246960A1 (adMare Therapeutics Society, priority 2021, published 2024)
